Assay results reported in patent publication US10308648B2, “Inhibitors of cyclin-dependent kinase 7 (CDK7)” (Syros Pharmaceuticals, Inc., priority 2014, dated 2019).
Counter-ions that a name gives are not always drawn.

Legend:
Jurkat cells = assay: Inhibition of proliferation of Jurkat cells (CellTiter-Glo); assay type: cell-based; settings: Homo sapiens, 72 hour proliferation assay
Description: Representative compounds of the invention were tested at different concentrations (from 10 μM to […]; 0.5 log serial dilutions) for their ability to inhibit the proliferation of Jurkat cells. Known CDK inhibitors flavopiridol and triptolide were used as positive controls. Cells were grown in RPMI 1640+10% FBS+1% Glutamax. The cells were supplemented with FBS (Life Technologies) and 100 U·mL^−1 penicillin, 100 μg·mL^−1 streptomycin (Invitrogen) and cultured at 37° C. in a humidified chamber in the presence of 5% CO2. Proliferation assays were conducted over a 72 hour time period. CellTiter-Glo® (Promega Corporation, Madison, Wis. USA) was used to assess the anti-proliferative effects of the compounds following manufacturer's directions and utilizing the reagents supplied with the CellTiter-Glo® kit. In this table, “A” represents an IC50 of less than 500 nM; “B” an IC50 of between 500 nM and 5 μM; and “C” an IC50 of greater than 5 μM.

CDK7 = CDK7 (Homo sapiens (Human), UniProt P50613); assay: CDK7 kinase activity (Life Technologies Adapta kinase assay); assay type: biochemical; settings: 10 μM down to 0.514 nM, 3-fold serial dilutions, read-out: CDK7 Inhibition (IC50)
Description: Compounds of the invention were assayed for CDK7 activity at Life Technologies™ (Grand Island, N.Y.) using their commercially available Adapta® kinase assay services. Test compounds were tested at concentrations ranging from 10 μM down to 0.514 nM in a series of 3-fold serial dilutions. Details of this assay, including substrates used, are available on the Life Technologies web site (http://www.lifetechnologies.com/us/en/home/life-science/drug-discovery/target-and-lead-identification-and-validation/kinasebiology/kinase-activity-assays.html). The results of the assay are shown below in Table 3 where “A” represents a calculated IC50 of less than 100 nM; “B” represents a calculated IC50 of between 100 nM and 1 μM; and “C” represents a calculated IC50 of greater than 1 μM.

CDK7, sequence (P50613 whole entry): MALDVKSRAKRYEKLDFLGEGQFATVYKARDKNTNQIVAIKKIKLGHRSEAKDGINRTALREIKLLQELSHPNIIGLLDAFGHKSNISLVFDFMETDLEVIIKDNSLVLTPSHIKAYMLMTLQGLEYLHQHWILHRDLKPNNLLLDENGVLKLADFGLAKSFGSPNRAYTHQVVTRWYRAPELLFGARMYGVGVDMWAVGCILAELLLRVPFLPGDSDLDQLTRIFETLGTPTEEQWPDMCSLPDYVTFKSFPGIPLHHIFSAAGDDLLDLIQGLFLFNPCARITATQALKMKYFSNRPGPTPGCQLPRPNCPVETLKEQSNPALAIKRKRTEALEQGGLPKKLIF
CDK7, sequence (P51946 whole entry partner): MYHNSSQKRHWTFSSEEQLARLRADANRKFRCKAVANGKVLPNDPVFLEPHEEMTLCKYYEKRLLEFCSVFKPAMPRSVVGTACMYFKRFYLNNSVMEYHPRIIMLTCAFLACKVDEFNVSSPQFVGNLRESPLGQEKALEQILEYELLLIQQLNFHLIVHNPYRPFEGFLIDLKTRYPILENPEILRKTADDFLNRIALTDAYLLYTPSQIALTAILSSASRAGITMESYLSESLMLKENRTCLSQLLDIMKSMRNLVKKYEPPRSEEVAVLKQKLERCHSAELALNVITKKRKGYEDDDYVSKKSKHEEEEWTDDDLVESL
CDK7, sequence (P51948 whole entry partner): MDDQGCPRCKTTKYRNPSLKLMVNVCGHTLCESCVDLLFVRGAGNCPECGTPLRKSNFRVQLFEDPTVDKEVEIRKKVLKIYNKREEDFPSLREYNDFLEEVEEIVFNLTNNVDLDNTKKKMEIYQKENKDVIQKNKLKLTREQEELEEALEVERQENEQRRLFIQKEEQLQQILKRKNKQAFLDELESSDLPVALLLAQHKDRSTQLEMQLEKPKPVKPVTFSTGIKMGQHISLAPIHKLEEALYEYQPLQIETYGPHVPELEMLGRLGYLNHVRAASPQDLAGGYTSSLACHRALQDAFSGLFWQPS

IC50 (Jurkat cells)	IC50 (CDK7)	Structure (SMILES)
0.5 to 5 µM	< 0.1 µM	Nc1ccc(C(=O)N[C@H]2C[C@H](O)C[C@@H](Nc3ncc(Cl)c(-c4c[nH]c5ccccc45)n3)C2)cc1 (racemic) [Compound 101, (+/−)-4-amino-N-(3-(5-chloro-4-(1H-indol-3-yl)pyrimidin-2-ylamino)-5-hydroxycyclohexyl)benzamide]
	0.1 to 1 µM	Nc1ccc(C(=O)NC2CC(F)CC(Nc3ncc(Cl)c(-c4c[nH]c5ccccc45)n3)C2)cc1 (racemic) [Compound 110, (+/−)-4-amino-N-(3-(5-chloro-4-(1H-indol-3-yl)pyrimidin-2-ylamino)-5-fluorocyclohexyl)benzamide]
	> 1 µM	Nc1ccc(C(=O)NC23CC4CC(C2)CC(Nc2ncc(Cl)c(-c5c[nH]c6ccccc56)n2)(C4)C3)cc1 [Compound 100, 4-amino-N-(3-(5-chloro-4-(1H-indol-3-yl)pyrimidin-2-ylamino)tricyclo[3.3.1.1^3,7]decanyl)benzamide]
> 5 µM	0.1 to 1 µM	Nc1ccc(C(=O)N[C@H]2CCC[C@@H](Nc3ncc(Cl)c(-c4c[nH]c5ccccc45)n3)C2)cc1 [Compound 102, 4-amino-N-((1S,3R)-3-(5-chloro-4-(1H-indol-3-yl)pyrimidin-2-ylamino)cyclohexyl)benzamide]
> 5 µM	0.1 to 1 µM	Nc1ccc(C(=O)N[C@H]2CCC[C@@H](Nc3ncc(C4CC4)c(-c4c[nH]c5ccccc45)n3)C2)cc1 [Compound 103, 4-amino-N-((1S,3R)-3-(5-cyclopropyl-4-(1H-indol-3-yl)pyrimidin-2-ylamino)cyclohexyl)benzamide.HCl]
> 5 µM	0.1 to 1 µM	Nc1ccc(C(=O)NC23CCCC(Nc4ncc(Cl)c(-c5c[nH]c6ccccc56)n4)(C2)C3)cc1 [Compound 104, 4-amino-N-(5-(5-chloro-4-(1H-indol-3-yl)pyrimidin-2-ylamino)bicyclo[3.1.1]heptan-1-yl)benzamide]
0.5 to 5 µM	< 0.1 µM	CN(C)CCCC(=O)Nc1ccc(C(=O)N[C@H]2CCC[C@@H](Nc3ncc(Cl)c(-c4c[nH]c5ccccc45)n3)C2)cc1 [Compound 105, N-((1S,3R)-3-((5-chloro-4-(1H-indol-3-yl)pyrimidin-2-yl)amino)cyclohexyl)-4-(4-(dimethylamino)butanamido)benzamide]
> 5 µM	< 0.1 µM	Nc1ccc(NC(=O)[C@H]2CCC[C@@H](Nc3ncc(Cl)c(-c4c[nH]c5ccccc45)n3)C2)cc1 [Compound 106, (1S,3R)—N-(4-aminophenyl)-3-(5-chloro-4-(1H-indol-3-yl)pyrimidin-2-ylamino)cyclohexanecarboxamide]
< 0.5 µM	< 0.1 µM	N#Cc1cnc(N[C@@H]2CCC[C@H](NC(=O)c3ccc(N)cc3)C2)nc1-c1c[nH]c2ccccc12 [Compound 107, 4-amino-N-((1S,3R)-3-(5-cyano-4-(1H-indol-3-yl)pyrimidin-2-ylamino)cyclohexyl)benzamide]
> 5 µM	> 1 µM	Nc1ccc(C(=O)N[C@H]2CCC[C@@H](Nc3ncc(Cl)c(-c4cccnc4)n3)C2)cc1 [Compound 108, 4-amino-N-((1S,3R)-3-(5-chloro-4-(pyridin-3-yl)pyrimidin-2-ylamino)cyclohexyl)benzamide]
0.5 to 5 µM	0.1 to 1 µM	Nc1ccc(S(=O)(=O)N[C@H]2CCC[C@@H](Nc3ncc(Cl)c(-c4c[nH]c5ccccc45)n3)C2)cc1 [Compound 109, 4-amino-N-((1S,3R)-3-(5-chloro-4-(1H-indol-3-yl)pyrimidin-2-ylamino)cyclohexyl)benzenesulfonamide]
> 5 µM	0.1 to 1 µM	Nc1ccc(C(=O)N[C@H]2CCC[C@@H](Nc3ncc(Cl)c(-c4c[nH]c5ccccc45)n3)C2)cc1F [Compound 111, 4-amino-N-((1S,3R)-3-(5-chloro-4-(1H-indol-3-yl)pyrimidin-2-ylamino)cyclohexyl)-3-fluorobenzamide]
0.5 to 5 µM	0.1 to 1 µM	Nc1ccc(C(=O)N[C@H]2CCC[C@@H](Nc3ncc(Cl)c(-c4c[nH]c5ccccc45)n3)C2)c(F)c1 [Compound 112, 4-amino-N-((1S,3R)-3-(5-chloro-4-(1H-indol-3-yl)pyrimidin-2-ylamino)cyclohexyl)-2-fluorobenzamide]
0.5 to 5 µM	0.1 to 1 µM	NC(=O)C(=O)Nc1ccc(C(=O)N[C@H]2CCC[C@@H](Nc3ncc(Cl)c(-c4c[nH]c5ccccc45)n3)C2)cc1 [Compound 113, N1-(4-(((1S,3R)-3-((5-chloro-4-(1H-indol-3-yl)pyrimidin-2-yl)amino)cyclohexyl)carbamoyl)phenyl)oxalamide]
	> 1 µM	Nc1ccc(C(=O)N[C@H]2CCC[C@@H](Nc3nccc(-c4c[nH]c5ccccc45)n3)C2)cc1 [Compound 114, N-((1S,3R)-3-(4-(1H-indol-3-yl)pyrimidin-2-ylamino)cyclohexyl)-4-aminobenzamide]
